The target of one experiment is Carbonic anhydrase 1 (Homo sapiens, UniProt P00915). As to the kind of experiment: CA Enzyme Assay. As to the method:
(§1) CA activity was measured by the Maren method which is based on determination of the time required for the pH to decrease from 10.0 to 7.4 due to CO2 hydration [Maren et al., J. Pharm. Exp. Ther., 130:2629-2634].

The target of the next experiment is Carbonic anhydrase 2 (Homo sapiens, UniProt P00918). As to the kind of experiment: CA Enzyme Assay. On the procedure:
as §1

We go through three compounds from BindingDB's records for doi:10.3109/14756366.2011.584535 (Balikesir University, 2012).

Chain of Carbonic anhydrase 1 (P00915 whole entry): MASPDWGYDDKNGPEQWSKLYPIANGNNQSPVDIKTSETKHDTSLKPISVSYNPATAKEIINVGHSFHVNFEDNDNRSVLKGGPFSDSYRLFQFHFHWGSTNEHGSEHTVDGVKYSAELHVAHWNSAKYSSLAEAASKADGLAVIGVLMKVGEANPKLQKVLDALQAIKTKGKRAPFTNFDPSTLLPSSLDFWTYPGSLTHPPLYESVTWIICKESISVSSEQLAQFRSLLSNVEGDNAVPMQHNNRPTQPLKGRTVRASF

One may read the IC50 as the concentration that gives 50% inhibition. In the case of `CC/C(=C(/CC)c1ccc(O)cc1)c1ccc(O)cc1`, the IC50 on Carbonic anhydrase 1 was 94 µM; against Carbonic anhydrase 2, 89 µM.
Take `CC12C=CC3=C4CCC(=O)C=C4CCC3C1CCC2O` (stereo unspecified) [Trenbolone (2)]: the IC50 against Carbonic anhydrase 1 worked out at 55 µM; at Carbonic anhydrase 2 it was 159 µM.
For the compound `CC1CCCC(O)CCCCCc2cc(O)cc(O)c2C(=O)O1` (stereo unspecified) [Zeranol (4)], the values for the IC50 at Carbonic anhydrase 1 and against Carbonic anhydrase 2 were 898 µM and 101 µM, respectively.
